Structures can show the parent of a compound that is named as a salt.
What was measured:
Type in all cases: biochemical
[1] = target: T1, recombinant human DAO (diamine oxidase) (Homo sapiens, UniProt P19801); assay: Activity on recombinant human DAO, method similar to VAP-1 assay, 1 mM putrescine substrate; details: read-out: Inhibitory Activity (IC50, nM) DAO
T1 construct: purchased R&D systems
T1 sequence (P19801 20-751): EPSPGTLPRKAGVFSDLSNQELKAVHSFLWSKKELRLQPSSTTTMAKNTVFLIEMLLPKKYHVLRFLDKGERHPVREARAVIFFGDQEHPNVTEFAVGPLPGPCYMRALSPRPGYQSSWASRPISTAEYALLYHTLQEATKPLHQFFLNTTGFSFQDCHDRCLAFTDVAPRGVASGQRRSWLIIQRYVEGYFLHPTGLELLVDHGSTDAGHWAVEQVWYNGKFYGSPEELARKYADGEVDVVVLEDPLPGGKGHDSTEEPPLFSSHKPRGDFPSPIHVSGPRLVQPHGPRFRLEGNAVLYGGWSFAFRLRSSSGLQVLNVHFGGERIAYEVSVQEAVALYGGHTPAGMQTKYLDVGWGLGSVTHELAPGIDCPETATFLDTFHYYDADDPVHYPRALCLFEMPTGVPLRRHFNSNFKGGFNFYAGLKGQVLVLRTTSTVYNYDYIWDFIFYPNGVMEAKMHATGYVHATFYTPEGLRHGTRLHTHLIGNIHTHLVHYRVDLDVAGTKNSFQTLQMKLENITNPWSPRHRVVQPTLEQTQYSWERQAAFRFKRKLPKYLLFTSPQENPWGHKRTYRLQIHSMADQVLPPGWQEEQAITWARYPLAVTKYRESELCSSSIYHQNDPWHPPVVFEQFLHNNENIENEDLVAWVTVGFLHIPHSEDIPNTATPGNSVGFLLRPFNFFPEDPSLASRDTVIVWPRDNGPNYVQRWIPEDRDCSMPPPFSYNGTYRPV
In short: (§1)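 Amplex Red/HRP-coupled H2O2 fluorescence assay run as for VAP-1: enzyme in 50 mM sodium phosphate pH 7.4 preincubated with compound 30 min at 37 °C, then substrate (putrescine for DAO, benzylamine for MAO-B, tyramine for MAO-A) added with 200 uM Amplex Red, 1 U/mL HRP. Signal rate over 1-2 h; IC50 from 4-parameter logistic fit.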

[2] = target: T2, recombinant human VAP-1 (Homo sapiens, UniProt Q16853); assay: Activity on recombinant human VAP-1, HRP-coupled Amplex Red hydrogen peroxide assay, benzylamine substrate; details: 30 min incubation at 37° C., 1 mM benzylamine, read-out: Inhibitory Activity (IC50, nM) human VAP-1
T2 construct: purchased R&D systems
T2 sequence (Q16853 1-763): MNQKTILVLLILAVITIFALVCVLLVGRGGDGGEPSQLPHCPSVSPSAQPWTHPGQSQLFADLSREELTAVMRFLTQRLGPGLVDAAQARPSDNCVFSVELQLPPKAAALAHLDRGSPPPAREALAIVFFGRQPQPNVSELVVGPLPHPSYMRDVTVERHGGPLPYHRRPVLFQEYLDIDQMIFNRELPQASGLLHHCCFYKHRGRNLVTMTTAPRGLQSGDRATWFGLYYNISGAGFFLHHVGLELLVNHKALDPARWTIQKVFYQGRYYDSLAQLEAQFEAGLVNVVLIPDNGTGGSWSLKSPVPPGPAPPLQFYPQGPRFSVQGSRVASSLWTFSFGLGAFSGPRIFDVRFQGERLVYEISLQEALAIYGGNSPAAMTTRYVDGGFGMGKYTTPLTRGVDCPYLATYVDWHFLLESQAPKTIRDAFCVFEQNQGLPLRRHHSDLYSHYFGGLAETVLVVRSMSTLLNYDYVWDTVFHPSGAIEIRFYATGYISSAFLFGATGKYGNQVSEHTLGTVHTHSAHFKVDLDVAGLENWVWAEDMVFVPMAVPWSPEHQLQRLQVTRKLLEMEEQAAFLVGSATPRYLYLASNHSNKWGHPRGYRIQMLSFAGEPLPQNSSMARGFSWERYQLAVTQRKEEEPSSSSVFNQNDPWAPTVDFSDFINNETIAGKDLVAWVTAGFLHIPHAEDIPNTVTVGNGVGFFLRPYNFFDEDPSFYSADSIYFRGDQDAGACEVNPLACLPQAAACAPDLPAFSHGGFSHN
In short: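 Recombinant human VAP-1 in 50 mM sodium phosphate pH 7.4 preincubated with compound for 30 min at 37 °C, then 1 mM benzylamine, 200 uM Amplex Red and 1 U/mL HRP added. Resorufin fluorescence (ex 544/em 590 nm) followed over 1-2 h; % signal-rate decrease vs DMSO control, 8-point 4-parameter fit for IC50.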

[3] = target: T3, recombinant human MAO-B (monoamine oxidase-B) (Homo sapiens, UniProt P27338); assay: Activity on recombinant human MAO-B, method similar to VAP-1 assay, 1 mM benzylamine substrate; details: read-out: Inhibitory Activity (IC50, nM) MAO-B
T3 construct: purchased Sigma-Aldrich
T3 sequence (P27338 1-520): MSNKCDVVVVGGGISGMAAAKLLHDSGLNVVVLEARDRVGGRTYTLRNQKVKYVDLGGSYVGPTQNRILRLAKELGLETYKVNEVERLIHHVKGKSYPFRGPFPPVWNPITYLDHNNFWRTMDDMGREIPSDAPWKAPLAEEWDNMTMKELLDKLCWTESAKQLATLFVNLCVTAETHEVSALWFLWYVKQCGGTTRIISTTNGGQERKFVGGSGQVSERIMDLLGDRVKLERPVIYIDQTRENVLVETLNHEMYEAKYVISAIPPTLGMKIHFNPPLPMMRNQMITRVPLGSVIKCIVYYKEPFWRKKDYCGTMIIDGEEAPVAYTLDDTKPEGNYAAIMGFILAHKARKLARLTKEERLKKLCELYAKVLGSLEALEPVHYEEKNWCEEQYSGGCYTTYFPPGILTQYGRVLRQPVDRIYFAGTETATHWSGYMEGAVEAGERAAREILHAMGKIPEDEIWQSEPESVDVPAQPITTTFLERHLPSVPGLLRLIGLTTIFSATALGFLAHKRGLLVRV
In short: as §1

[4] = target: T4, recombinant human MAO-A (monoamine oxidase-A) (Homo sapiens, UniProt P21397); assay: Activity on recombinant human MAO-A, method similar to VAP-1 assay, 0.5 mM tyramine substrate; details: read-out: Inhibitory Activity (IC50, nM) MAO-A
T4 construct: purchased Sigma-Aldrich
T4 sequence (P21397 1-527): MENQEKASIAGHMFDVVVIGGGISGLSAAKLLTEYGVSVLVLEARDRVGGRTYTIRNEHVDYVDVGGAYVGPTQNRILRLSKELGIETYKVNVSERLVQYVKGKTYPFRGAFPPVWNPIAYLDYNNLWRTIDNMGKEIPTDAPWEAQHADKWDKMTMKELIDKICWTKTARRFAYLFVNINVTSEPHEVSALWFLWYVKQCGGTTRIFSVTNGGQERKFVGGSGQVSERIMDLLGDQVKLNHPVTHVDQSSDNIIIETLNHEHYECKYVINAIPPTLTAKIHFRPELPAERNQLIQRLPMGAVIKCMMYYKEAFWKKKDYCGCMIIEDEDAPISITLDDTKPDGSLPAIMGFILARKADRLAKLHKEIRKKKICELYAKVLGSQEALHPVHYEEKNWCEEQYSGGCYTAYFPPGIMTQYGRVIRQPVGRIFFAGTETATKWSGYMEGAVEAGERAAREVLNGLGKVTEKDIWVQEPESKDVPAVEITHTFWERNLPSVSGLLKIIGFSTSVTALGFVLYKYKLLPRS
In short: as §1

Row | IC50 [1] | IC50 [2] | IC50 [3] | IC50 [4] | SMILES
1 | 150 nM | 0.2 nM | 14000 nM | > 100000 nM | NCC(Cn1nc2cc(C#Cc3ccc4c(c3)CCC(=O)N4)ccn2c1=O)=C(F)F [Example 62, 6-[2-[2-[2-(aminomethyl)-3,3-difluoro-allyl]-3-oxo-[1,2,4]triazolo[4,3-a]pyridin-7-yl]ethynyl]-3,4-dihydro-1H-quinolin-2-one trifluoroacetate]
2 | 0.2 nM | 2.3 nM | 25 nM | > 100000 nM | NC/C(=C\F)Cn1nc2ccc(-c3ccc(-c4ccon4)cc3)cn2c1=O [Example 7, 2-[(2E)-2-(aminomethyl)-3-fluoroprop-2-en-1-yl]-6-[4-(1,2-oxazol-3-yl)phenyl][1,2,4]triazolo[4,3-a]pyridin-3(2H)-one hydrochloride]
3 | 37 nM | 7 nM | > 10000 nM | > 10000 nM | CN(C)Cc1ccccc1-c1ccn2c(=O)n(C/C(=C/F)CN)nc2c1 [Example 23, 2-[(2E)-2-(aminomethyl)-3-fluoroprop-2-en-1-yl]-7-2-[(dimethylamino)methyl]phenyl[1,2,4]triazolo[4,3-a]pyridin-3(2H)-one hydrochloride]
4 | 1 nM | 0.3 nM | 1400 nM | 5400 nM | NC/C(=C\F)Cn1nc2cc(-c3ccc4c(c3)NC(=O)CO4)ccn2c1=O [Example 42, 6-[2-[(2E)-2-(aminomethyl)-3-fluoroprop-2-en-1-yl]-3-oxo-2,3-dihydro[1,2,4]triazolo[4,3-a]pyridin-7-yl]-2H-1,4-benzoxazine-3 (4H)-one hydrochloride]
5 | < 100 nM | 6.2 nM | 69 nM | > 100000 nM | NC/C(=C\F)Cn1nc2ccc(-c3ccc4sc(N)nc4c3)cn2c1=O [Example 14, 6-(2-amino-1,3-benzothiazol-5-yl)-2-[(2E)-2-(aminomethyl)-3-fluoroprop-2-en-1-yl][1,2,4]triazolo[4,3-a]pyridin-3(2H)-one trifluoroacetate]
6 | 14 nM | 0.6 nM | > 10000 nM | > 100000 nM | NC/C(=C\F)Cn1nc2cc(-c3ccc(C(=O)N4CCOCC4)cc3)ccn2c1=O [Example 24, 2-[(2E)-2-(aminomethyl)-3-fluoroprop-2-en-1-yl]-7-[4-(morpholin-4-ylcarbonyl)phenyl][1,2,4]triazolo[4,3-a]pyridin-3(2H)-one hydrochloride]
7 | < 100 nM | 2 nM | 1450 nM | > 100000 nM | NC/C(=C\F)Cn1nc2ccc(-c3ccc(-c4nc[nH]n4)cc3)cn2c1=O [Example 5, 2-[(2E)-2-(aminomethyl)-3-fluoroprop-2-en-1-yl]-6-[4-(1H-1,2,4-triazol-3-yl)phenyl][1,2,4]triazolo[4,3-a]pyridin-3(2H)-one trifluoroacetate]
8 | 17 nM | 0.4 nM | 150 nM | > 100000 nM | CN(C)c1ccc(-c2ccn3c(=O)n(CC(CN)=C(F)F)nc3c2)cn1 [Example 51, 2-[2-(aminomethyl)-3,3-difluoro-allyl]-7-[6-(dimethylamino)-3-pyridyl]-[1,2,4]triazolo[4,3-a]pyridin-3-one trifluoroacetate]
9 | 0.4 nM | 0.2 nM | < 10 nM | 3500 nM | NC/C(=C\F)Cn1nc2cc(-c3ccc4nonc4c3)ccn2c1=O [Example 38, 2-[(2E)-2-(aminomethyl)-3-fluoroprop-2-en-1-yl]-7-(2,1,3-benzoxadiazol-5-yl)[1,2,4]triazolo[4,3-a]pyridin-3(2H)-one hydrochloride]
10 | 0.3 nM | 0.6 nM | 290 nM | > 100000 nM | Cc1cc(-c2ccc3nn(C/C(=C/F)CN)c(=O)n3c2)cc2c1NC(=O)CC2 [Example 17, 6-[2-[(2E)-2-(aminomethyl)-3-fluoroprop-2-en-1-yl]-3-oxo-2,3-dihydro[1,2,4]triazolo[4,3-a]pyridin-6-yl]-8-methyl-3,4-dihydroquinolin-2(1H)-one hydrochloride]
11 | 0.5 nM | 0.2 nM | 24 nM | > 100000 nM | NC/C(=C\F)Cn1nc2cc(-c3c[nH]c4ncccc34)ccn2c1=O [Example 35, 2-[(2E)-2-(aminomethyl)-3-fluoroprop-2-en-1-yl]-7-(1H-pyrrolo[2,3-b]pyridin-3-yl)[1,2,4]triazolo[4,3-a]pyridin-3(2H)-one hydrochloride]
12 | 9000 nM | 1.8 nM | 2700 nM | > 100000 nM | NCC(Cn1nc2cc(C#Cc3ccc4c(c3)NCCO4)ccn2c1=O)=C(F)F [Example 59, 2-[2-(aminomethyl)-3,3-difluoro-allyl]-7-[2-(3,4-dihydro-2H-1,4-benzoxazin-6-yl)ethynyl]-[1,2,4]triazolo[4,3-a]pyridin-3-one ditrifluoroacetate]
13 | 220 nM | 0.4 nM | > 100000 nM | > 100000 nM | NCC(Cn1nc2cc(C#Cc3cnc4c(c3)NCCO4)ccn2c1=O)=C(F)F [Example 60, 2-[2-(aminomethyl)-3,3-difluoro-allyl]-7-[2-(2,3-dihydro-1H-pyrido[2,3-b][1,4]oxazin-7-yl)ethynyl]-[1,2,4]triazolo[4,3-a]pyridin-3-one ditrifluoroacetate]

Source: US11091479B2, “Triazolopyridin-3-ones or their salts and pharmaceutical compositions comprising the same” (YUHAN CORPORATION, priority 2018, dated 2021)
